Test results reported in patent publication US20260297060A1, “COMPOUNDS FOR THE DEGRADATION OF MUTANT BRAF” (C4 THERAPEUTICS, INC., priority 2023, published 2026).
Read-outs that look alike come from different tables or passages of the source.

Key:
[1] = test system: A375-NRAS^Q61K cells; test: CTGlo Cell Viability Assay, A375-NRAS^Q61K (A375.11) cells, 96 hours; type: cell-based, human; conditions: Homo sapiens, 96 h, A375.11 (A375-NRAS^Q61K) cells; for Emax: lowest % viability achieved
Summary of the method: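 A375 cells carrying BRAF V600E and NRAS Q61K were seeded at 250 cells/well with a 10-point half-log dose series (max 10 μM final). After 96 h at 37 °C, viability was read as ATP luminescence (CellTiter-Glo), background-subtracted and normalized to DMSO (100%). GI50 from 4-parameter fit; Emax is the lowest % viability.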

[2] = Example 6 pharmacokinetics assay for PKPD study (plasma, tumor, liver); type: in vivo, BALB/c nude mice; conditions: mouse, po, single dose
Protocol: For the pharmacokinetic/pharmacodynamic (PKPD) study, compounds were tested in the A375 human melanoma xenografts. Known BRAF inhibitors encorafenib, and dabrafenib were used as positive controls. Encorafenib, dabrafenib, Compound 83, Compound 93, Compound 70, and Compound 54 were administered to BALB/c nude mice bearing A375 tumors on PG-D1 and dosed orally (PO) once. Encorafenib was dosed at 35 mg/kg. Dabrafenib was dosed at 100 mg/kg. Compound 83, Compound 93, Compound 70, and Compound 54 were dosed at 10 mg/kg. The plasma and tumor samples were collected at 1, 6, 12 and 24 hours, and liver samples were collected at 6 hours and 12 hours post the single dose. This study was non-GLP study.
The plasma samples were collected at predetermined time points for PK analysis. The mice were euthanized at predetermined time points post the treatment. The blood samples were collected into the 1.5 mL Eppendorf tubes containing 15 μL of 0.5 M EDTA-K2. And then the anticoagulant blood samples were centrifuged at 2,500 g at 4° C. for 15 minutes. The plasma samples were separated into 2 aliquots. The 1st was used for PK analysis, and the 2nd served as backup. The samples were stored at −80° C. before bioanalysis.
The tumor samples were collected at predetermined time points for PK and WB analysis (B-RAF and p-ERK). The tumor was dissected out and split into 3 parts. The 1st part was used for PK analysis, the 2nd part was used for WB analysis and the last one served as backup for study. The samples were transferred into pre-labeled tubes and quickly froze in liquid nitrogen within 2 minutes after dissection. The samples were stored at −80° C. before bioanalysis.
Liver samples were collected at predetermined time points for PK analysis. The left lobe of the liver was dissected out and split into 2 parts. The 1st part was used for PK analysis and the 2nd part served as the backup for the study. The samples were transferred into pre-labeled tubes and quickly froze in liquid nitrogen within 2 minutes after dissection. The samples were stored at −80° C. before bioanalysis.
For PKPD study, the harvested plasma, tumor and liver were processed for pharmacokinetics analysis by LC/MS/MS with a concentration range of 0.5-1000 ng/mL for Encorafenib and Dabrafenib in plasma, 0.05-100 ng/mL for Encorafenib and Dabrafenib in tumor, 0.2-200 ng/mL for Encorafenib and Dabrafenib in liver, 2.0-2000 ng/mL for compound 93, compound 83, compound 54 and compound 70 in liver, 50.0-50000 ng/mL for compound 83 and compound 70 in plasma, 0.5-1000 ng/mL for compound 83 and compound 70 in tumor, 1.0-2000 ng/mL for compound 93 in plasma, 10.0-20000 ng/mL for compound 54 in plasma, 0.5-500 ng/mL for compound 93 and compound 54 in tumor.

[3] = liver, 100 mg/kg, read-out: Concentration in Liver (mean ± SEM)
[4] = plasma, 100 mg/kg, read-out: Concentration in Plasma (mean ± SEM)
[5] = tumor, 100 mg/kg, read-out: Concentration in Tumor (mean ± SEM)
[6] = liver, 35 mg/kg, read-out: Concentration in Liver (mean ± SEM)
[7] = plasma, 35 mg/kg, read-out: Concentration in Plasma (mean ± SEM)
[8] = tumor, 35 mg/kg, read-out: Concentration in Tumor (mean ± SEM)

CO[C@@H]1CCN(S(=O)(=O)Nc2ccc(F)c(Oc3ccc4ncn(C5CC6(CCN(C7CC8(C7)CN(c7cc9c(cc7F)c(N7CCC(=O)NC7=O)nn9C)C8)CC6)C5)c(=O)c4c3)c2C#N)C1 (stereo partly drawn) [Compound 269, (3R)-N-[2-cyano-3-[3-[7-[2-[3-(2,4-dioxohexahydropyrimidin-1-yl)-5-fluoro-1-methyl-indazol-6-yl]-2-azaspiro[3.3]heptan-6-yl]-7-azaspiro[3.5]nonan-2-yl]-4-oxo-quinazolin-6-yl]oxy-4-fluoro-phenyl]-3-methoxy-pyrrolidine-1-sulfonamide]
GI50 [1]: < 1 µM | Emax [1]: < 50%

COC1CN(S(=O)(=O)Nc2ccc(F)c(Oc3ccc4ncn(C5CC6(CCN(C7CC8(C7)CN(c7cc9c(cc7F)c(N7CCC(=O)NC7=O)nn9C)C8)CC6)C5)c(=O)c4c3)c2C#N)C1 (stereo not drawn) [Compound 280, N-[2-cyano-3-[3-[7-[2-[3-(2,4-dioxohexahydropyrimidin-1-yl)-5-fluoro-1-methyl-indazol-6-yl]-2-azaspiro[3.3]heptan-6-yl]-7-azaspiro[3.5]nonan-2-yl]-4-oxo-quinazolin-6-yl]oxy-4-fluoro-phenyl]-3-methoxy-azetidine-1-sulfonamide]
GI50 [1]: < 1 µM | Emax [1]: < 50%

CC(C)(C)c1nc(-c2cccc(NS(=O)(=O)c3c(F)cccc3F)c2F)c(-c2ccnc(N)n2)s1 [Dabrafenib, dabrafenib, reference compound]
concentration at 6 h [2, 3]: 157 ± 12.3 ng/g | concentration at 12 h [2, 3]: 19.2 ± 5.84 ng/g | concentration at 1 h [2, 4]: 276 ± 17.2 ng/mL | concentration at 6 h [2, 4]: 46.2 ± 5.05 ng/mL | concentration at 12 h [2, 4]: 6.74 ± 2.73 ng/mL | concentration at 24 h [2, 4]: 0.725 ± 0.11 ng/mL | concentration at 1 h [2, 5]: 225 ± 29.2 ng/g | concentration at 6 h [2, 5]: 32.8 ± 0.26 ng/g | concentration at 12 h [2, 5]: 9.59 ± 1.68 ng/g | concentration at 24 h [2, 5]: 1.34 ± 0.369 ng/g

COC(=O)N[C@@H](C)CNc1nccc(-c2cn(C(C)C)nc2-c2cc(Cl)cc(NS(C)(=O)=O)c2F)n1 [Encorafenib, encorafenib, reference compound]
concentration at 6 h [2, 6]: 375 ± 82 ng/g | concentration at 12 h [2, 6]: 12.6 ± 5.14 ng/g | concentration at 1 h [2, 7]: 5720 ± 493 ng/mL | concentration at 6 h [2, 7]: 654 ± 169 ng/mL | concentration at 12 h [2, 7]: 17.3 ± 7.09 ng/mL | concentration at 24 h [2, 7]: 0.895 ng/mL | concentration at 1 h [2, 8]: 1250 ± 161 ng/g | concentration at 6 h [2, 8]: 135 ± 22.8 ng/g | concentration at 12 h [2, 8]: 18.1 ± 7.47 ng/g | concentration at 24 h [2, 8]: 2.63 ± 0.386 ng/g
